Reference: patent US7300925B2, “2-ethyl and 2-ethylidene-19-nor-vitamin D compounds” (Wisconsin Alumni Research Foundation, priority 2000, dated 2007)
Where “and” joins values, the source holds several entries; their conditions need not be identical. Identical values can stand only once.

Experiments:
[1] = tested on: intestinal calcium transport; test: support of intestinal calcium transport in vitamin D-deficient rats on a low-calcium diet; format: in vivo; conditions: for Ca transport S/M (mean ± SEM): vitamin D-deficient rats, low-calcium diet, 24 hours after the last dose
[2] = tested on: bone calcium mobilization; test: bone calcium mobilization (serum Ca) in vitamin D-deficient rats on a low-calcium diet; format: in vivo; conditions: for Serum Ca (mean ± SEM): vitamin D-deficient rats, low-calcium diet, 24 hours after the last dose
[3] = tested on: human promyelocyte HL-60 cells; test: induction of differentiation of HL-60 cells into monocytes; format: cell-based; conditions: compared with 1α,25-(OH)2D3; FIG. 6a, 6b
Procedure: FIG. 6a is a graph illustrating the percent HL-60 cell differentiation as a function of the concentration of the 2-ethylidene-19-nor-vitamins as compared to 1α,25-dihydroxyvitamin D3; and
FIG. 6b is a graph illustrating the percent HL-60 cell differentiation as a function of the concentration of the 2α and 2β-ethyl-19-nor-vitamins as compared to 1α,25-dihydroxyvitamin D3.
The synthesized vitamins were tested for their ability to bind the porcine intestinal vitamin D receptor. […] In the next assay, the cellular activity of the synthesized compounds was established by studying their ability to induce differentiation of human promyelocyte HL-60 cells into monocytes.

[4] = 260 pmol daily i.p. for seven days
[5] = 65 pmol daily i.p. for seven days
[6] = 130 pmol daily i.p. for seven days

Row | SMILES | Ca transport S/M (mean ± SEM) [1, 4] | Serum Ca (mean ± SEM) [2, 4] | Ca transport S/M (mean ± SEM) [1, 5] | Ca transport S/M (mean ± SEM) [1, 6] | Serum Ca (mean ± SEM) [2, 5] | Serum Ca (mean ± SEM) [2, 6] | ability to induce differentiation of HL-60 cells into monocytes (in words) [3] | calcemic activity in vivo in rats (in words) ([2]; overall judgement of Table 1 (intestine and bone)) | intestinal activity (in words) ([1]; rats, Table 1) | ability to mobilize calcium from bone (in words) ([2]; rats, Table 1)
1 | CCC1C(O)CC(=CC=C2CCCC3(C)C2CCC3C(C)CCCC(C)(C)O)CC1O [Compound 7b, 2β-ethyl-19-nor-(20S)-1α,25-(OH)2D3] | 4.1 ± 0.3 | 5.6 ± 0.1 | – | – | – | – | – | – | – | –
2 | CC=C1C(O)CC(=CC=C2CCCC3(C)C2CCC3C(C)CCCC(C)(C)O)CC1O (stereo not drawn) [Compound 5a, 1α,25-dihydroxy-2(Z)-ethylidene-19-nor-vitamin D3] | – | – | 4.4 ± 0.4 | 5.7 ± 0.9 | 4.4 ± 0.2 | 4.2 ± 0.0 | – | – | – | –
3 | C=C1/C(=C\C=C2/CCC[C@]3(C)[C@@H]([C@H](C)CCCC(C)(C)O)CC[C@@H]23)C[C@@H](O)C[C@@H]1O [Compound 1, 1α,25-dihydroxyvitamin D3, reference compound] | 5.9 ± 0.4 and 6.0 ± 0.9 and 6.5 ± 0.9 | 5.8 ± 0.3 and 6.4 ± 0.4 and 5.8 ± 0.1 | – | 4.9 ± 0.7 and 5.5 ± 0.5 | – | 5.2 ± 0.2 and 5.1 ± 0.3 | – | – | – | –
4 | CC=C1[C@H](O)CC(=C/C=C2\CCC[C@@]3(C)C2CCC3[C@@H](C)CCCC(C)(C)O)C[C@H]1O (stereo partly drawn) [Compound 4b, 2-ethylidene-19-nor-(20S)-1α,25-(OH)2D3 (E-isomer)] | – | – | 9.0 ± 0.3 | 5.8 ± 0.8 | 8.2 ± 0.3 | 12.1 ± 0.6 | more potent than 1α,25-(OH)2D3 | especially potent | – | –
5 | CC=C1[C@H](O)CC(=C/C=C2\CCC[C@@]3(C)C2CCC3[C@@H](C)CCCC(C)(C)O)C[C@H]1O (stereo partly drawn) [Compound 5b, 2-ethylidene-19-nor-(20S)-1α,25-(OH)2D3 (Z-isomer)] | – | – | 4.3 ± 0.7 | 3.8 ± 0.3 | 4.0 ± 0.3 | 4.0 ± 0.1 | – | – | – | –
6 | CCC1C(O)CC(=CC=C2CCCC3(C)C2CCC3C(C)CCCC(C)(C)O)CC1O [Compound 6b, 2α-ethyl-19-nor-(20S)-1α,25-(OH)2D3] | 5.0 ± 0.4 | 7.0 ± 0.1 | – | – | – | – | – | – | marked intestinal activity | strong calcium mobilization response
7 | CC=C1C(O)CC(=CC=C2CCCC3(C)C2CCC3C(C)CCCC(C)(C)O)CC1O (stereo not drawn) [Compound 4a, 1α,25-dihydroxy-2(E)-ethylidene-19-nor-vitamin D3] | – | – | 5.0 ± 0.4 | 6.8 ± 0.4 | 4.5 ± 0.1 | 5.2 ± 0.2 | – | – | – | –
8 | CCC1C(O)CC(=CC=C2CCCC3(C)C2CCC3C(C)CCCC(C)(C)O)CC1O (stereo not drawn) [Compound 7a, 2β-ethyl-19-nor-1α,25-(OH)2D3] | 3.7 ± 0.3 | 5.0 ± 0.1 | – | – | – | – | – | – | – | –
9 | CCC1C(O)CC(=CC=C2CCCC3(C)C2CCC3C(C)CCCC(C)(C)O)CC1O (stereo not drawn) [Compound 6a, 2α-ethyl-19-nor-1α,25-(OH)2D3] | 4.0 ± 0.4 | 5.1 ± 0.1 | – | – | – | – | – | – | – | –
